Measured values: patent US20240208965A1, “HETEROARYL ALKYLENE SUBSTITUTED 2-OXOQUINAZOLINE DERIVATIVES AS METHIONINE ADENOSYLTRANSFERASE 2A INHIBITORS” (IDEAYA BIOSCIENCES, INC., priority 2020, published 2024)

target: T1, Human MAT2A (Homo sapiens, UniProt P31153); experiment: Phosphate Sensor Fluorescence Assay (Biologic Example A); format: biochemical; settings: MAT2A inhibition, Biological Example A procedure (Compounds 1.001-1.028); 500 uM L-methionine, 500 uM ATP
T1 construct: Human MAT2A: Cepter, amino acids 1-395 Clone ID 334, lot 00023-148; purchased Cepter clone ID 334, lot 00023-148
Procedure: The ability of the compound of present disclosure to inhibit MAT2A enzyme was determined using a Phosphate Sensor Fluorescence Assay described below.
Biologic Example A. Phosphate Sensor Fluorescence Assay
MAT2A enzyme is incubated with a test compound in DMSO or DMSO and its substrates (L-methionine and ATP) in a microtiter plate. The enzymatic reaction is stopped by the addition of Working Phosphate Sensor Mixture. The plate is analyzed for fluorescence at 450 nm. The high control (DMSO with enzyme and its substrates) gives high fluorescence which represents no inhibition of enzymatic activity while the low control (DMSO with MAT2A substrates and no enzyme) gives low fluorescence which represents full inhibition of enzymatic activity.
• Human MAT2A: Cepter, amino acids 1-395 • Tris, pH 7.5: Invitrogen cat #15567-027 • KCl: Ambion cat #AM9640G • MgCl2: Ambion cat #AM9530G • Brij-35: Sigma cat B4184-10ML • DTT: Goldbio cat #DTT100 • BGG: Sigma cat #G5009-25G • PNP: Novus Biologicals cat #NBP1-50872 • 7-MEG: Cayman Chemical cat #15988 • L-Methionine: Alfa Aesar cat #J61904 • ATP: Alfa Aesar cat #J60336 • Phosphate Sensor: Thermo Fisher cat #PV4407 • EDTA: Life Tech cat #15575-038 • Assay plate: 384-well black polypropylene plate: Thomas Scientific cat #1149Q35
• Assay Buffer: 50 mM Tris, pH 7.5/50 mM KCl/10 mM MgCl2/0.01% Brij-35/1 mM DTT/0.1% BGG/40 nM PNP/6 uM 7-MEG • MAT2A: 10 nM for Cepter clone ID 329, lot 00023-123 before the addition of Working Phosphate Sensor Mixture • 5 nM for Cepter clone ID 334, lot 00023-148 before the addition of Working Phosphate Sensor Mixture • L-methionine: 500 uM before the addition of Working Phosphate Sensor Mixture • ATP: 500 uM before the addition of Working Phosphate Sensor Mixture
For the assay, a mixture of 1 mM L-methionine/1 mM ATP (2× final pre-stopped concentration) in assay buffer; MAT2A (2× final pre-stopped concentration) in Assay Buffer and Working Phosphate Sensor Mixture (1.5 uM Phosphate Sensor/30 mM EDTA in Assay Buffer, which is 3× final concentrations) were prepared. Test compounds or DMSO were added to the appropriate well suing D300e digital dispenser. 5 μl/well of Assay Buffer was added to the wells corresponding to the negative control and 5 μl/well of MAT2A was added to all the wells except for those corresponding to the negative control. After incubating the plate at room temperature for 15 minutes, 5 μl/well of the 1 mM L-methionine/1 mM ATP mixture was added to all wells. The plate was centrifuged at 1000 rpm for 1 minute and then incubated at room temperature for 1 hour. 5 μl of the Working Phosphate Sensor Mixture was added to all wells and the plate was centrifuged at 1000 rpm for 1 minute. The plate was read for fluorescence at 450 nm after exciting at 430 nm.
Percent inhibition was calculated in Chemical and Biological Information System (CBIS), (ChemInnovation Software Inc.). Curves were fitted by CBIS as % inhibition vs. log [compound concentration] using a 4-parameter inhibition model.
Fit=(A+((B−A)/(1+((C/x)^D))))
Compounds 1.001-1.028 were tested using the procedure described in Bioogical Example A, described above. Compounds 1.029-1.070 were tested using the procedure described in Biological Example B, described above.

T1 sequence (P31153 whole entry, the tested form may be a part): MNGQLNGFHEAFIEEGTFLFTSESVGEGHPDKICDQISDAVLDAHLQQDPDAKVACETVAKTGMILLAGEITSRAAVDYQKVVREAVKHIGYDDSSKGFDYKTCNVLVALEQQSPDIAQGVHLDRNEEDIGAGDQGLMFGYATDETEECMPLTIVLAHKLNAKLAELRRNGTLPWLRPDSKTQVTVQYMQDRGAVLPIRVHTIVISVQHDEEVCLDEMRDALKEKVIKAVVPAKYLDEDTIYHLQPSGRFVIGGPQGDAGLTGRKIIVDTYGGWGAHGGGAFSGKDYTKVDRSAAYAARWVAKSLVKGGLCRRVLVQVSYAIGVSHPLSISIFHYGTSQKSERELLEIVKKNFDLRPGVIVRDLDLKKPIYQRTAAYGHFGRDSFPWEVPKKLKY

Row | IC50 [nM] | SMILES
1 | 1000 to 10000 | CNc1nc(=O)n(Cc2c[nH]c(C(F)(F)F)n2)c2cc(C(F)(F)F)ccc12 [1.010, 4-(methylamino)-7-(trifluoromethyl)-1-((2-(trifluoromethyl)-1H-imidazol-4-yl)methyl)quinazolin-2(1H)-one]
2 | 10 to 200 | CC(c1c[nH]cn1)n1c(=O)nc(N2CC[C@H](CO)C2)c2ccc(C(F)(F)F)cc21 (stereo partly drawn) [1.011, 1-(1-(1H-imidazol-4-yl)ethyl)-4-((S)-3-(hydroxymethyl)pyrrolidin-1-yl)-7-(trifluoromethyl)quinazolin-2(1H)-one]
3 | 10 to 200 | CC(c1c[nH]cn1)n1c(=O)nc(N(C)C)c2ccc(C(F)(F)F)cc21 (stereo not shown) [1.015, 1-(1-(1H-imidazol-4-yl)ethyl)-4-(dimethylamino)-7-(trifluoromethyl)quinazolin-2(1H)-one]
4 | 10 to 200 | CC(c1c[nH]cn1)n1c(=O)nc(N)c2ccc(C(F)(F)F)cc21 (stereo not shown) [1.018, 1-(1-(1H-imidazol-4-yl)ethyl)-4-amino-7-(trifluoromethyl)quinazolin-2(1H)-one]
